In one assay the test system is Sindbis replicon. The experiment in a line: Sindbis replicon (qRTCPCR/iCycler) in Huh7B/Sindbis cells. The class given is cell-based, Sindbis virus. The note with it: for inhibition of Sindbis replicon: at all concentrations tested. On the procedure:
Here we determine the effects of Picolinic acid and Fusaric Acid on Sindbis replicon in Huh7B/Sindbis cells. The Sindbis replicons were studied by qRTCPCR/iCycler. Normalization by OD and serial dilutions were done in the untreated cell line. The experimental design was as follows: cells were grown in 12 well cell culture plates; the compounds interaction was done for 24 hours; at extraction, cell confluence was 75%; and RNA was extracted using Qiagen Rneasy extraction kit.
(In general: Replicon systems follow genome replication, usually without infectious particles.)

In a further assay the test system is CMV AD 169 strain. The experiment in a line: CMV replication in HEL-299 cells (virus titration). The class given is cell-based, Cytomegalovirus. Particulars: Human betaherpesvirus 5, 72 h, 3 days, read-out: EC50 for inhibition of CMV replication. On the procedure:
CMV AD 169 strain (ATCC) was used in the experiments. A CMV susceptible cell line, human fibroblast cells HEL-299 (ATCC), was used in the plaque reduction assays.
90% confluent HEL-299 cells were washed and then Infected with CMV AD169 at 0.5 moi for 2 h at 37° C. Following removal of viral inoculums, the Infected cells were washed and exposed to different concentrations of PA (final concentrations: 0, 10, 100, 250, 500, and 1000 ug/mL) or FA (final concentrations: 0, 1, 10, 30, 60, and 100 ug/mL for 3 days. The culture medium was collected for titration of released virions and the cells were harvested for titration of intracellular virions.
90% confluent HEL-299 cells in 24 well plates were Infected with 200 uL of CMV dilutions at 37° C. for 2 h. Following removal of virus inoculums, the infected cells were washed with PBS and overlaid with 0.5% methylcellulose in culture medium. We then treated CMV Infected cells for 3 days at 37° C. with different concentrations of PA and FA. The culture medium was collected for titration of released virus and the cells were harvested for titration of intracellular virus.

A further assay deals with J2 retrovirus. The note with it: GG2EE transformed macrophages; cited from earlier work.
Assay [1] concerns certain lymphomas, and viral diseases such as Herpes simplex labialis, herpes zoster and papilloma viruses. As to the kind of experiment: Systemic picolinic acid capsules in humans. The class given is in vivo. Particulars: 00 gelatin capsules at 500 mg per capsule. The source says:
A systemic preparation of picolinic acid, its derivatives or analogs, containing approximately 1% to 100% active ingredient, may be administered orally, intravenously, intramuscularly or by any acceptable route for the treatment of viral systemic infections such as Dengue. […] Likewise, an injectable form may be prepared.

Converted amounts (≈) assume the structure as drawn. “And” between values parts separate entries of the source, which are not always exact repeats. Equal values may be shown once.

Usually EC50 stands for the concentration at which the effect is half-maximal. In the case of `CCCCc1ccc(C(=O)O)nc1` [FA, fusaric acid], the “Sindbis replicon % CTRL” value in the assay on Sindbis replicon (FA 5, 24 hours) was 14.0 % CTRL; with Sindbis replicon (FA 25, 24 hours), 11.6 % CTRL; in the assay with Sindbis replicon (FA 50, 24 hours) it was 9.3 % CTRL; in the assay on Sindbis replicon (FA 100, 24 hours), 8.8 % CTRL. Moreover, the “Sindbis replicon AVE” value was 22.7 in the assay on Sindbis replicon (FA 5, 24 hours); 22.9 in the assay with Sindbis replicon (FA 25, 24 hours); 23.3 in the assay with Sindbis replicon (FA 50, 24 hours); 23.5 with Sindbis replicon (FA 100, 24 hours). The “Sindbis replicon, single reading” value with Sindbis replicon (FA 5, 24 hours) was 22.7 and 23.3 and 23.1 and 21.7; in the assay on Sindbis replicon (FA 25, 24 hours), 23.0 and 22.7 and 22.4 and 23.5; with Sindbis replicon (FA 50, 24 hours), 22.8 and 23.4 and 22.7 and 24.2; in the assay on Sindbis replicon (FA 100, 24 hours), 22.2 and 23.8 and 24.0 and 23.9. The “inhibition of Sindbis replicon” value with Sindbis replicon is more than 85%. For the same compound, the EC50 in the assay on CMV AD 169 strain is approximately 60 µg/mL (≈ 335 µM).

As to `O=C(O)c1ccccn1` [PA, picolinic acid], the “Sindbis replicon % CTRL” value in the assay on Sindbis replicon (PA 100, 24 hours) is 6.5 % CTRL; with Sindbis replicon (PA 300, 24 hours), 11.3 % CTRL; with Sindbis replicon (PA 400, 24 hours), 6.7 % CTRL; with Sindbis replicon (column PA 200, 24 hours), 6.5 % CTRL. Further, the “Sindbis replicon AVE” value in the assay on Sindbis replicon (PA 100, 24 hours) amounted to 23.7; with Sindbis replicon (PA 300, 24 hours), 23.3; in the assay on Sindbis replicon (PA 400, 24 hours), 23.7; with Sindbis replicon (column PA 200, 24 hours), 23.8. Also, the “Sindbis replicon, single reading” value in the assay on Sindbis replicon (PA 100, 24 hours) was 24.1 and 23.7 and 23.5 and 23.6; in the assay with Sindbis replicon (PA 300, 24 hours) it was 24.3 and 23.7 and 21.6; in the assay on Sindbis replicon (PA 400, 24 hours), 24.0 and 23.5 and 23.2 and 24.3; in the assay on Sindbis replicon (column PA 200, 24 hours), 24.1 and 22.9 and 24.2. Besides, in the assay on Sindbis replicon, the “inhibition of Sindbis replicon” value is “greater than 90%”. For the same compound, the J2 retrovirus expression result with J2 retrovirus is listed as “not affected”. The EC50 with CMV AD 169 strain was approximately 230 µg/mL (≈ 1870 µM). For the same compound, in assay [1], the “control of certain lymphomas and viral diseases in humans” value is listed as “effective”.

The values above are taken from patent publication US20100015174A1, “METHOD TO CONTROL DENGUE VIRUSES IN HUMANS BY PICOLINIC ACID AND DERIVATIVES THEREOF” (priority 2008, published 2010).
